Tests used:
DIPGX7 = H3.3 K27M diffuse intrinsic pontine glioma line; assay: growth inhibition relative to DMSO (0) and positive control (1) (fraction); higher = more growth inhibition
In short: (§1)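 pHGG cell lines and astrocyte controls were grown on Geltrex-coated 384-well plates and treated for 7 days with a two-drug dose matrix, run in two plate orientations. Single-agent values are the one-drug arms of the same matrix plates. CellTiter-Glo luminescence was normalised without log2 transformation to fractional activity between solvent (0) and positive control (1) wells. The data were used for response-surface synergy modelling.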

iASTRO = astrocyte control; assay: as above
In short: as §1

O=C(NOC[C@H](O)CO)c1ccc(F)c(F)c1Nc1ccc(I)cc1F + CC1(C)OCCn2c1nc1c(N3CCOCC3)nc(-c3cnc(N)nc3)nc12 [GDC0084]
growth inhibition
Details	compound 1 concentration 0.009766 µM	compound 1 concentration 0.01953 µM	compound 1 concentration 0.03906 µM	compound 1 concentration 0.07812 µM	compound 1 concentration 0.15625 µM	compound 1 concentration 0.3125 µM	compound 1 concentration 0.625 µM	compound 1 concentration 1.25 µM	compound 1 concentration 5 µM	compound 1 concentration 20 µM
DIPGX7, compound 2 concentration 0.03906 µM	-0.0325	-0.0312	-0.0934	-0.145	-0.164	-0.126	-0.119	0.0102	0.288	0.312
DIPGX7, compound 2 concentration 0.07812 µM	0.189	0.113	0.0974	0.0816	-0.0134	0.0326	0.0363	0.178	0.344	0.313
DIPGX7, compound 2 concentration 0.15625 µM	0.43	0.379	0.335	0.264	0.267	0.238	0.296	0.364	0.563	0.467
DIPGX7, compound 2 concentration 0.3125 µM	0.611	0.641	0.589	0.561	0.514	0.483	0.563	0.627	0.793	0.747
DIPGX7, compound 2 concentration 0.625 µM	0.781	0.802	0.8	0.791	0.779	0.782	0.841	0.884	0.941	0.918
DIPGX7, compound 2 concentration 1.25 µM	0.874	0.865	0.876	0.884	0.893	0.906	0.934	0.96	0.982	0.983
DIPGX7, compound 2 concentration 5 µM	0.937	0.933	0.938	0.962	0.972	0.98	0.99	0.999	1	1
DIPGX7, compound 2 concentration 20 µM	0.977	0.987	0.989	0.994	0.998	1	1	1	1	1
iASTRO, compound 2 concentration 0.03906 µM	0.0351	0.072	0.0628	0.082	0.097	0.097	0.102	0.0401	-0.0539	-0.0303
iASTRO, compound 2 concentration 0.07812 µM	0.0868	0.0655	0.0861	0.0688	0.093	0.134	0.15	0.0961	0.0858	0.0424
iASTRO, compound 2 concentration 0.15625 µM	0.123	0.128	0.113	0.0769	0.0999	0.115	0.0997	0.104	0.0381	0.0629
iASTRO, compound 2 concentration 0.3125 µM	0.0584	0.0952	0.0549	0.0979	0.0838	0.126	0.158	0.146	0.164	0.196
iASTRO, compound 2 concentration 0.625 µM	0.0444	0.0912	0.0357	0.0123	0.112	0.148	0.303	0.443	0.516	0.588
iASTRO, compound 2 concentration 1.25 µM	0.21	0.214	0.279	0.319	0.44	0.568	0.731	0.784	0.811	0.836
iASTRO, compound 2 concentration 5 µM	0.756	0.777	0.798	0.811	0.83	0.858	0.875	0.887	0.901	0.887
iASTRO, compound 2 concentration 20 µM	0.822	0.806	0.821	0.841	0.849	0.873	0.889	0.901	0.9	0.909

CC1(C)OCCn2c1nc1c(N3CCOCC3)nc(-c3cnc(N)nc3)nc12 [GDC0084] + O=C(NOC[C@H](O)CO)c1ccc(F)c(F)c1Nc1ccc(I)cc1F [PD0325901]
growth inhibition
Details	compound 1 concentration 0.009766 µM	compound 1 concentration 0.01953 µM	compound 1 concentration 0.03906 µM	compound 1 concentration 0.07812 µM	compound 1 concentration 0.15625 µM	compound 1 concentration 0.3125 µM	compound 1 concentration 0.625 µM	compound 1 concentration 1.25 µM	compound 1 concentration 5 µM	compound 1 concentration 20 µM
DIPGX7, compound 2 concentration 0.03906 µM	-0.121	-0.103	-0.085	0.0493	0.217	0.56	0.762	0.886	0.945	0.998
DIPGX7, compound 2 concentration 0.07812 µM	-0.0496	9.09e-05	0.0209	0.0495	0.252	0.537	0.775	0.88	0.956	0.997
DIPGX7, compound 2 concentration 0.15625 µM	-0.0185	0.0149	0.038	0.0769	0.248	0.507	0.771	0.891	0.965	0.999
DIPGX7, compound 2 concentration 0.3125 µM	-0.0519	0.0198	0.0847	0.101	0.248	0.522	0.802	0.91	0.983	1
DIPGX7, compound 2 concentration 0.625 µM	0.0193	0.0541	0.102	0.141	0.301	0.534	0.825	0.938	0.992	1
DIPGX7, compound 2 concentration 1.25 µM	0.138	0.158	0.168	0.231	0.351	0.606	0.868	0.961	0.998	1
DIPGX7, compound 2 concentration 5 µM	0.215	0.278	0.311	0.354	0.555	0.784	0.933	0.986	1	1
DIPGX7, compound 2 concentration 20 µM	0.18	0.195	0.238	0.323	0.539	0.765	0.933	0.988	1	1
iASTRO, compound 2 concentration 0.03906 µM	0.09	0.0454	0.118	0.094	0.0396	0.0144	-0.00856	0.184	0.758	0.807
iASTRO, compound 2 concentration 0.07812 µM	0.121	0.0878	0.134	0.118	0.109	0.12	0.0894	0.264	0.802	0.813
iASTRO, compound 2 concentration 0.15625 µM	0.0937	0.147	0.167	0.0963	0.0973	0.0664	0.0992	0.309	0.815	0.825
iASTRO, compound 2 concentration 0.3125 µM	0.149	0.11	0.135	0.176	0.144	0.0844	0.154	0.446	0.833	0.846
iASTRO, compound 2 concentration 0.625 µM	0.15	0.125	0.146	0.159	0.128	0.129	0.317	0.675	0.878	0.884
iASTRO, compound 2 concentration 1.25 µM	0.155	0.123	0.103	0.0682	0.108	0.207	0.459	0.766	0.878	0.893
iASTRO, compound 2 concentration 5 µM	0.108	0.0234	0.0231	0.0442	0.0662	0.219	0.546	0.791	0.875	0.891
iASTRO, compound 2 concentration 20 µM	0.14	0.0807	0.0709	0.0677	0.0926	0.24	0.627	0.821	0.881	0.902

— the supplement of paper PMC8253809
